Measurements published in patent US9549922B2, “Use of eribulin and lenvatinib as combination therapy for treatment of cancer” (priority 2013, dated 2017).
Entries after “also recorded” stand apart in the source; their conditions may differ.

Key:
[1] = system: A375 human malignant melanoma xenografts; assay: Antitumor activity in A375 human malignant melanoma xenograft model (tumor volume); assay type: in vivo; details: single agent at highest dose: E7389 3.0 mg/kg i.v. Q7Dx2; E7080 15 mg/kg p.o. Q1Dx14; female athymic mice
From the text: Following randomization, drug treatment was initiated.
A value of P<0.05 was considered statistically significant.

in vivo = details: athymic, mouse
[2] = system: NCI-H1993 human non-small cell lung cancer xenografts; assay: Antitumor activity in NCI-H1993 human non-small cell lung cancer xenografts (tumor volume); assay type: in vivo, mice; details: single treatment: E7389 1.5 mg/kg i.v. Q7Dx2; E7080 10 mg/kg p.o. Q1Dx12
Procedure: (§1) Human non-small cell lung cancer cell lines, NCI-H1993 and PC-9, were maintained in monolayer cultures in RPMI-1640 medium supplemented with 10% Fetal Bovine Serum and 1% of Penicillin-Streptomycin-Amphotericin at 37° C. in a 5% CO2 humidified incubator. On the day of inoculation, cells were harvested by Trypsinization, washed, and mixed 1:1 (v/v) with medium/GelTrex. NCI-H1993 and PC-9 human non-small cell lung cancer cells (10×10^6 cells per animal) were inoculated subcutaneously near the right axillary area using a 26-gauge needle in a 0.1 mL volume in female immuncompromised mice (Mouse: BALB/c Slc nu/nu; Japan SLC, Inc.).
(§2) The experiment consisted of a no inject control group, a single agent drug-treated group for either E7389 (1.5 mg/kg) or E7080 (10 mg/kg), and combination drug-treated groups. Each group was composed of five mice. […] Following randomization, drug treatment was initiated. E7389 (1.5 mg/kg) was intravenously administered weekly for two weeks (Q7Dx2). E7080 was orally administered daily for 12 days (Q1Dx12). Both drugs were administered at a volume of 0.1 mL per 10 g body weight.
(§3) Tumor volume was determined by caliper measurements (mm) using the formula Tumor volume (mm^3)=length (mm)×width^2(mm^2)×½
(§4) The mean±SD for tumor volume for each experimental group was calculated. […]

[3] = system: PC-9 human non-small cell lung cancer xenografts; assay: Antitumor activity in PC-9 human non-small cell lung cancer xenografts (tumor volume); assay type: in vivo, mice; details: single treatment: E7389 1.5 mg/kg i.v. Q7Dx2; E7080 10 mg/kg p.o. Q1Dx12
Procedure: as §1, §2, §3, §4

[4] = Relative body weight change in A375 xenograft study; assay type: in vivo, mice; details: E7389 alone at 3.0 mg/kg i.v. Q7Dx2
Procedure: The experiment consisted of a vehicle-treated control group, a single agent drug-treated group for either E7389 or E7080, and three combination drug-treated groups (summarized in Table 1). Each group was composed of six mice for a total of 48 mice on the first day of treatment. […] Following randomization, drug treatment was initiated. E7080 was orally administered daily for 14 days (Q1Dx14) at a volume of 0.1 mL per 10 g body weight. E7389 (0.05 mg/kg) was intravenously administered daily for 14 days. In the combination group, E7389 was administered three hours after oral administration of E7080. […]
The general health of the mice was monitored daily. Tumor volume was determined by caliper measurements (mm) using the formula (1×w^2)/2=mm^3, where 1 and w refer to the larger and smaller perpendicular dimensions collected at each measurement. Tumor dimensions and body weight were recorded twice per week starting the first day of treatment. Relative body weight was calculated as follows: Relative body weight=(body weight on day of measurement)/(body weight on first day of treatment).
The data generated consisted of group mean body weights at each measurement and group mean tumor volumes at each measurement. The mean±SEM for tumor volume and relative body weight for each experimental group was calculated.

COc1cc2nccc(Oc3ccc(NC(=O)NC4CC4)c(Cl)c3)c2cc1C(N)=O.CS(=O)(=O)O [E7080, 4-[3-chloro-4-[[(cyclopropylamino)carbonyl]amino]phenoxy]-7-methoxy-6-quinolinecarboxamide, methanesulfonate (1:1)]
antitumor effect (tumor volume) [1]: tumor growth delay, but not tumor regression | MTD at 14 days (in vivo): 15 mg/kg | antitumor activity (tumor volume) [2]: significant antitumor activity | antitumor activity (tumor volume) [3]: significant antitumor activity

C=C1C[C@@H]2CC[C@@]34C[C@H]5O[C@@H]6[C@@H](O3)[C@H]3O[C@H](CC[C@@H]3O[C@H]6[C@H]5O4)CC(=O)C[C@@H]3[C@@H](OC)[C@@H](C[C@H](O)CN)O[C@H]3C[C@H]3O[C@@H](CC[C@@H]1O2)C[C@@H](C)C3=C.CS(=O)(=O)O [E7389, (2R,3R,3aS,7R,8aS,9S,I0aR,11S,12R,13aR,13bS,15S,18S,21S,24S,26R,28R,29aS)-2-[(2S)-3-amino-2-hydroxypropyl]hexacosahydro-3-methoxy-26-methyl-20,27-bis(methylene)-11,15:18,21:24,28-triepoxy-7,9-ethano-12,15-methano-9H,15H-furo[3,2-i]furo[2′,3′:5,6]pyrano[4,3-b][1,4]dioxacyclopentacosin-5(4H)-one, methanesulfonate (salt)]
antitumor effect (tumor volume) [1]: tumor growth delay, but not tumor regression; also recorded: strong antitumor activity | MTD at 14 days (in vivo; other: E7389 i.v., E7080 p.o.): 3 mg/kg | relative body weight change [4]: Body weight loss was observed | antitumor activity (tumor volume) [2]: significant antitumor activity | antitumor activity (tumor volume) [3]: significant antitumor activity
